≈ marks a conversion by molar mass, not a printed value. Like-named read-outs stand apart in the source and are kept apart here.
Assays:
[1] = biological target: FosA^KP (K. pneumoniae chromosomal FosA) (Klebsiella pneumoniae, UniProt W8UNW6); experiment: FosA screening assay (monochlorobimane fluorescence, glutathione consumption); type: biochemical
[2] = biological target: FosA (Klebsiella pneumoniae, UniProt W8UNW6); experiment: Steady-state kinetics of ANY1 inhibition of FosA activity; type: biochemical; conditions: for Vmax: 0-50 mM fosfomycin
Method: Assays were carried out in a volume of 50 μl at 25° C. in 0.1 M sodium phosphate buffer (pH 8.0) containing 50 mM KCl, 25 μM MnCl2, 30 mM glutathione, and 0-50 mM fosfomycin. A 100 nM concentration of FosA was used to initiate the reaction, which was quenched after 20 minutes for FosA. Reactions were quenched by the addition of 150 μl methanol. Quenched reactions were diluted in 100 μl of 0.1 M sodium phosphate buffer (pH 8.0) containing 1 mM EDTA. Following the addition of 500 μM monochlorobimane, the concentration of glutathione was established by fluorescence spectroscopy using a SpectraMax M2 plate reader (Molecular Devices). A standard curve was prepared using 0 to 750 μM glutathione. Data were fitted to Michaelis Menten equations using SigmaPlot (Systat Software Inc., San Jose, Calif.).

[3] = biological target: FosA^KP (chromosomal K. pneumoniae FosA) (Klebsiella pneumoniae, UniProt W8UNW6); experiment: Isothermal titration calorimetry; type: binding
[4] = tested on: FosB enzyme from Gram-positive pathogens; experiment: Isothermal titration calorimetry; type: binding; conditions: data not shown
[5] = biological target: E. coli MurA (Escherichia coli, UniProt P0A749); experiment: Isothermal titration calorimetry; type: binding; conditions: data not shown
[6] = tested on: fosfomycin-resistant, FosA-producing Enterobacter cloacae; experiment: Growth inhibition of fosfomycin-resistant FosA-producing bacteria; type: cell-based; conditions: with 32 μg/mL fosfomycin; E. cloacae
Method: (§1) Each bacterial strain is resistant to fosfomycin and caries the species-specific fosfomycin-modifying gene encoding FosA.
(§2) An overnight culture of each antibiotic-resistant bacterium was grown in Mueller-Hinton Broth at 37° C., 150 rpm. The following day, the culture was diluted such that its OD600 was 0.2. The diluted culture was allowed to grow at 37° C. for 1 h. Following this, the culture was diluted such that its OD600 was 0.1. In a 96-well, round-bottom plate, three groups were set-up. […] Group three contained 10 two-fold dilutions of fosfomycin (0-1024 μg/mL). All groups contained 25% volume of the […] and 25 μg/mL glucose-6-phosphate. The plate was incubated at 37° C. for up to […]. The OD600 was assessed every […]. Data was analyzed in PRISM software or SigmaPlot® software (Systat Software Inc., San Jose, Calif.). The initial OD600 subtracted as background, and fit with a logistic growth curve.

[7] = tested on: fosfomycin-resistant, FosA-producing Escherichia coli; experiment: as above; type: cell-based; conditions: with 32 μg/mL fosfomycin; E. coli
Method: as §1, §2

[8] = tested on: fosfomycin-resistant, FosA-producing Klebsiella pneumoniae; experiment: as above; type: cell-based; conditions: with 32 μg/mL fosfomycin; K. pneumoniae
Method: as §1, §2

[9] = tested on: fosfomycin-resistant, FosA-producing Pseudomonas aeruginosa; experiment: as above; type: cell-based; conditions: with 32 μg/mL fosfomycin; P. aeruginosa
Method: as §1, §2

[10] = tested on: fosfomycin-resistant Escherichia coli strain containing a deletion in the uhpT gene; experiment: Growth curves of FosA-non-producing uhpT deletion strain; type: cell-based; conditions: absence and presence of 32 μg/mL fosfomycin; strain without FosA gene
Method: as §2
FIGS. 8A-8B show the growth curves of a fosfomycin-resistant Escherichia coli strain containing a deletion in the uhpT gene. […] Fosfomycin resistance is conferred by decreased transport of the antibiotic across the bacterial cell wall.

[11] = biological target: FosA3 WT (Escherichia coli, UniProt D7UQM0); experiment: Tryptophan fluorescence binding studies
[12] = biological target: FosA3 T9A (Escherichia coli, UniProt D7UQM0, T9A); experiment: Tryptophan fluorescence binding studies
[13] = biological target: FosA3 S36A (Escherichia coli, UniProt D7UQM0, S36A); experiment: Tryptophan fluorescence binding studies
[14] = biological target: FosA3 Y39F (Escherichia coli, UniProt D7UQM0, Y39F); experiment: Tryptophan fluorescence binding studies
[15] = biological target: FosA3 Y65F (Escherichia coli, UniProt D7UQM0, Y65F); experiment: Tryptophan fluorescence binding studies
[16] = biological target: FosA3 R96A (Escherichia coli, UniProt D7UQM0, R96A); experiment: Tryptophan fluorescence binding studies
[17] = biological target: FosA3 Y131A (Escherichia coli, UniProt D7UQM0, Y131A); experiment: Tryptophan fluorescence binding studies
[18] = biological target: FosA3 Y131F (Escherichia coli, UniProt D7UQM0, Y131F); experiment: Tryptophan fluorescence binding studies
[19] = tested on: carbapenemase (KPC)-producing K. pneumoniae clinical strain I1; experiment: Bacterial growth curve analysis (Gompertz model); type: cell-based; conditions: for IC50: Klebsiella pneumoniae, read-out: IC50 for FOM (concentration decreasing maximum growth by 50%)
Method: Briefly, an overnight culture of K. pneumoniae I1 was diluted in Mueller-Hinton broth in a 96-well plate, incubated at 37° C. (150 rpm), and OD600 was assessed every 30 min.
The growth curves were modeled using a modified 3-parameter Gompertz equation (Zwietering et al., Appl Environ Microbiol 1990, 56(6)1875-81), which facilitated quantification of the lag time (min), growth rate (OD units/min) and maximum growth (OD units). […] The maximum growth value was determined from the curves in FIGS. 12A-12C using a 3-parameter Gompertz equation.

[20] = tested on: K. pneumoniae I1; experiment: Time-kill experiments; type: cell-based; conditions: FOM with ANY1
[21] = tested on: KPC-producing clinical strain E. cloacae YDC612; experiment: Growth curve analysis, FOM dose response with or without ANY1; type: cell-based; conditions: 112 μg/mL ANY1; P<0.05
[22] = tested on: KPC-producing clinical strain S. marcescens YDC760-2; experiment: as above; type: cell-based; conditions: 112 μg/mL ANY1; P<0.05
[23] = tested on: FosA3-producing E. coli YD472; experiment: as above; type: cell-based; conditions: 112 μg/mL ANY1; P=0.04
[24] = tested on: human peripheral blood mononuclear cells; experiment: CellTiter-Glo luminescent cell viability assay; type: cell-based; conditions: 0-224 μg/mL ANY1; data not shown
Method: (§3) In all cases, cell viability was assessed using the CellTiter-Glo® luminescent cell viability assay.

[25] = tested on: HK2 cells; experiment: CellTiter-Glo luminescent cell viability assay; type: cell-based, human; conditions: 0-224 μg/mL ANY1; data not shown
Method: as §3

[26] = tested on: OK cells; experiment: CellTiter-Glo luminescent cell viability assay; type: cell-based, marsupial; conditions: 0-224 μg/mL ANY1; data not shown
Method: as §3

[27] = biological target: FosA3 W34A (Escherichia coli, UniProt D7UQM0, W34A); experiment: biochemical
[28] = biological target: FosA3 W46A (Escherichia coli, UniProt D7UQM0, W46A); experiment: biochemical
[29] = tested on: ESBL- and carbapenemase-producing Klebsiella pneumoniae; conditions: ESBL- and carbapenemase-producing K. pneumoniae; cited from earlier work
[30] = tested on: chromosomal FosA genes expressed in E. coli; conditions: cited from earlier work

O=c1[nH]n2cc(-c3n[nH]c(-c4cnc5c(Br)c(=O)[nH]n5c4)c3[N+](=O)[O-])cnc2c1Br [ANY1, 3-bromo-6-[3-(3-bromo-2-oxo-1H-pyrazolo[1,5-a]pyrimidin-6-yl)-4-nitro-1H-pyrazol-5-yl]-1H-pyrazolo[1,5-a]pyrimidin-2-one]
IC50 [1]: 5 µM | Vmax ([2]; 5 μM ANY1): 118.2 | Vmax ([2]; 10 μM ANY1): 107 | Vmax ([2]; 20 μM ANY1): 154.6 | Mode of inhibition with respect to glutathione ([2]; data not shown): non-competitive inhibitor | Mode of inhibition with respect to fosfomycin binding to FosA ([2]; varying fosfomycin, 0-20 μM ANY1): competitive inhibitor | Kd [3]: 0.18 ± 0.03 µM | Binding to FosB [4]: did not bind | Binding to E. coli MurA [5]: did not bind | Inhibition of FosA in the strain, reversing fosfomycin resistance (growth curves) [6]: effectively inhibited FosA | Inhibition of FosA in the strain, reversing fosfomycin resistance (growth curves) [7]: effectively inhibited FosA | Inhibition of FosA in the strain, reversing fosfomycin resistance (growth curves) [8]: effectively inhibited FosA | Inhibition of FosA in the strain, reversing fosfomycin resistance (growth curves) [9]: effectively inhibited FosA | Inhibition of bacterial growth [10]: did not inhibit the bacterial growth | Kd [11]: 0.441 ± 0.0501 µM | Kd [12]: 1.58 ± 0.0976 µM | Kd [13]: 1.36 ± 0.132 µM | Kd [14]: 0.868 ± 0.201 µM | Kd [15]: 0.784 ± 0.0747 µM | Kd [16]: 0.541 ± 0.0901 µM | Kd [17]: 4.88 ± 0.77 µM | Kd [18]: 0.551 ± 0.028 µM | Reduction of FOM IC50 by ANY1 ([19]; 112 μg/mL ANY1, P<0.05): ~6 fold | Bacterial growth when FOM was combined with ANY1 ([19]; FOM 32, 64, 128 μg/mL with ANY1 14-224 μg/mL, dose dependent): significantly attenuated | Effect of ANY1 alone on growth ([19]; absence of FOM): no effect | Effect of ANY1 on the activity of gentamicin ([19]; gentamicin ± ANY1 dose-response): did not alter the activity of gentamicin | Increase in FOM activity (maximum growth) ([19]; highest ANY1 concentration tested): ~6 fold | Effect of ANY1 on FOM activity in time-kill [20]: significantly increased FOM activity | Decrease of the IC50 for FOM by ANY1 [21]: 23 fold | Decrease of the IC50 for FOM by ANY1 [22]: > 100 fold | Decrease of the IC50 for FOM by ANY1 [23]: 1.8 fold | Impact on cell viability [24]: no impact on cell viability | Impact on cell viability [25]: no impact on cell viability | Impact on cell viability [26]: no impact on cell viability | Kd [27]: 2.62 ± 0.205 µM | Kd [28]: 2.47 ± 0.111 µM

C[C@@H]1O[C@@H]1P(=O)(O)O [FOM, Fosfomycin]
IC50 ([19]; absence of ANY1): 144 ± 16.5 mg/L (≈ 1.04 mM) | IC50 ([19]; presence of ANY1 (112 μg/mL)): 23.2 ± 4.3 mg/L | MIC50 [29]: ~32 mg/L (≈ 0.232 mM) | MIC90 [29]: ~128 mg/L (≈ 0.927 mM) | MIC ([30]; FosA of Enterobacter aerogenes): >1024 mg/L | MIC ([30]; FosA of Enterobacter cloacae): >1024 mg/L | MIC ([30]; FosA of Klebsiella oxytoca): >1024 mg/L | MIC ([30]; FosA of Klebsiella pneumoniae): >1024 mg/L | MIC ([30]; FosA of Morganella morganii): >1024 mg/L | MIC ([30]; FosA of Proteus mirabilis): 9.8 mg/L (≈ 0.071 mM) | MIC ([30]; FosA of Providencia rettgeri): >1024 mg/L | MIC ([30]; FosA of Providencia stuartii): >1024 mg/L | MIC ([30]; FosA of Pseudomonas aeruginosa): 16 mg/L (≈ 0.116 mM) | MIC ([30]; FosA of Serratia marcescens): >1024 mg/L

From patent US10980811B2, “Reversal of fosfomycin resistance” (University of Pittsburgh—Of the Commonwealth System of …, priority 2017, dated 2021)
